Reference: ChEMBL document CHEMBL1128954, “Discovery of antirhinoviral leads by screening a combinatorial library of ureas prepared using covalent scavengers” (Bioorg Med Chem Lett, 1996)

How the values were obtained:
Human rhinovirus sp. [1] = test: Compound was evaluated for the inhibition of human rhinovirus-14 HRV-14 at 1 ug/ml; format: functional
Human rhinovirus sp. [2] = test: Compound was evaluated for antirhinoviral activity against human rhinovirus-14 (HRV-14) in whole cell assay; format: functional, organism-based
Human rhinovirus sp. [3] = test: Compound was evaluated for cytotoxicity against human rhinovirus-14 (HRV-14) in whole cells as combinatorial sample; format: functional
Human rhinovirus sp. [4] = test: Compound was evaluated for cytotoxicity against human rhinovirus-14 (HRV-14) in whole cells as cresynthesized product using XTT assay.; format: functional
Human rhinovirus sp. [5] = test: Compound was evaluated for antirhinoviral activity against human rhinovirus-14 (HRV-14) as combinatorial sample; format: functional, organism-based
Human rhinovirus sp. [6] = test: Compound was evaluated for antirhinoviral activity against human rhinovirus-14 (HRV-14) as resynthesized product using XTT assay.; format: functional, organism-based

## CCCCOC(=O)c1ccc(NC(=O)N2CCN(CC(=O)NC(C)C)CC2)cc1
Human rhinovirus sp. [1]
  inhibition at 1 µg/mL: 101%
Human rhinovirus sp. [2]
  IC50: 2.4 µM
Human rhinovirus sp. [2]; Human rhinovirus sp.
  IC50: 1.8 µM
Human rhinovirus sp. [3]
  TC50: >40 µM
Human rhinovirus sp. [4]
  TC50: >40 µM

## CCCCOC(=O)c1ccc(NC(=O)NCCNC(C)=O)cc1
Human rhinovirus sp. [1]
  inhibition at 1 µg/mL: 0%

## CCCCOC(=O)c1ccc(NC(=O)N2CCCC(C(N)=O)C2)cc1 (stereo not drawn)
Human rhinovirus sp. [1]
  inhibition at 1 µg/mL: 1%

## CCCCOC(=O)c1ccc(NC(=O)NCCc2ccc(S(N)(=O)=O)cc2)cc1
Human rhinovirus sp. [5]
  IC50: 0.69 µM
Human rhinovirus sp. [1]
  inhibition at 1 µg/mL: 102%
Human rhinovirus sp. [6]
  IC50: 0.81 µM
Human rhinovirus sp. [3]
  TC50: 34 µM
Human rhinovirus sp. [4]
  TC50: >40 µM

## CCCCOC(=O)c1ccc(NC(=O)N2CCCCC2O)cc1 (stereo not drawn)
Human rhinovirus sp. [1]
  inhibition at 1 µg/mL: 2%

## CCCCOC(=O)c1ccc(NC(=O)N2CCSCC2)cc1
Human rhinovirus sp. [1]
  inhibition at 1 µg/mL: 1%

## CCCCOC(=O)c1ccc(NC(=O)N2CCC(C(N)=O)CC2)cc1
Human rhinovirus sp. [1]
  inhibition at 1 µg/mL: 0%

## CCCCOC(=O)c1ccc(NC(=O)NC2CC3CCC2C3)cc1 (stereo not drawn)
Human rhinovirus sp. [1]
  inhibition at 1 µg/mL: 1%

## CCCCOC(=O)c1ccc(NC(=O)N2CCN(c3ccccn3)CC2)cc1
Human rhinovirus sp. [1]
  inhibition at 1 µg/mL: 0%

## CCCCOC(=O)c1ccc(NC(=O)N2CCCC(C(=O)N(CC)CC)C2)cc1 (stereo not drawn)
Human rhinovirus sp. [1]
  inhibition at 1 µg/mL: 0%
